Source: patent US9265746B2, “Method for cell-specific targeting” (priority 2006, dated 2016)

Test system: KB-cell xenografts
Assay: Biodistribution of folate radiotracers in athymic nude mice bearing KB-cell xenografts, with or without antifolate
Format: in vivo
Details: 4 h p.i.; antifolate named in label pre-injected 1 h before radiotracer
Method: Preparation of cells for in vivo experiments: For subcutaneous inoculation of the mice sub-confluent cells were harvested by treatment with EDTA (1 mM) in PBS (1×, pH 7.4). The cells were then washed once with PBS and pelleted by spinning at 1000×g for 5 min at 20° C. The cells were resuspended in PBS to obtain a concentration of 50×10^6 cells/mL.
In Vivo Studies. 4-5-week-old female, athymic nude mice (CD1-Foxn1/nu) were purchased from Charles River Laboratories (Sulzfeld, Germany). Mice were housed under conditions of controlled temperature (26° C.), humidity (68%) and daily light cycle (12 h light/12 h dark). The animals were fed with a folate-deficient rodent diet (to reduce their serum folate to a level near that of humans) (Mathias et al, J. Nucl. Med. 1996; 37:1003-08). After an acclimation period of 5-7 days, the mice were inoculated subcutaneously with the tumour cell suspension (5×10^6 cells) into the subcutis of the axilla. Radiotracer distribution studies were performed 12-14 days after tumour cell inoculation. The radiotracer (100 μL, 1a: 3.5 MBq/mL or 1b: 7 MBq/mL) was administered via a lateral tail vein. Antifolates (MTX, RTX and PMX) were dosed according to literature experiments at the upper limit of the tolerated dose (Li et al, Clin. Exp. Pharmacol. Physiol. 2004; 31:267-70; Pritchard et al, Clin. Cancer Res. 2000; 6:4389-95; Hughes et al, Journal of Clinical Oncology 2002; 20:3533-44; Aherne et al, Br. J. Cancer 1998; 77:221-26). MTX was supplemented to the drinking water (80 mg/mL) or intravenously injected (400 μg), 24 h, 2 h, 1 h, 30 min and 15 min previous to the administration of radiotracer 1a. RTX (100 μg) and PMX (400 μg) respectively were administered intravenously 2 h, 1 h, 30 min and 15 min previous to the radiotracer 1a. The animals were sacrificed and dissected 4 h p.i. of the radiotracer 1a. Additional biodistribution experiments were performed (30 min), 1 h, 4 h and 24 h post injection of the radiotracer 1a or 1b respectively with (antifolate) pre-treated animals 1 h previous to the experiment. The selected tissues were removed, weighted, and counted for radioactivity to determine distribution of radioactivity within the test animal. The results were tabulated as percentage of the injected dose per gram (% ID/g) of weight tissue, using reference counts from a definite sample of the original injectate.

Structure (SMILES)	biodistribution blood	biodistribution bone	biodistribution contents of intest.	biodistribution heart	biodistribution intestines	biodistribution kidney	biodistribution liver	biodistribution lung	biodistribution muscle	biodistribution spleen	biodistribution stomach	biodistribution tumour	tumour-to-blood	tumour-to-kidney	tumour-to-liver
Nc1nc2ncc(CNc3ccc(C(=O)NC(CCC(=O)NCCCCCC[N+]45Cc6cccc[n+]6[99Tc-5]4([C]#[O+])([C]#[O+])([C]#[O+])[n+]4ccccc4C5)C(=O)O)cc3)nc2c(=O)[nH]1 (stereo not drawn) [radiotracer 3a]	0.03 ± 0.01 % ID/g	0.16 ± 0.02 % ID/g	2.49 ± 12.10 % ID/g	0.20 ± 0.09 % ID/g	0.71 ± 0.40 % ID/g	7.11 ± 0.75 % ID/g	1.72 ± 2.04 % ID/g	0.20 ± 0.02 % ID/g	0.27 ± 0.01 % ID/g	0.08 ± 0.02 % ID/g	0.54 ± 0.58 % ID/g	0.82 ± 0.27 % ID/g	27.00 ± 14.60	0.12 ± 0.05	1.24 ± 1.03
Nc1nc2ncc(CNc3ccc(C(=O)NC(CCC(=O)NCCCCCCn4cc5[n+](c4)[99Tc-5]4([C]#[O+])([C]#[O+])([C]#[O+])[NH2+]C(C5)C(=O)[O]4)C(=O)O)cc3)nc2c(=O)[nH]1 (stereo not drawn) [radiotracer 2a]	0.19 ± 0.18 % ID/g	0.82 ± 0.13 % ID/g	7.72 ± 4.36 % ID/g	0.80 ± 0.60 % ID/g	0.79 ± 0.43 % ID/g	42.02 ± 7.31 % ID/g	4.51 ± 1.29 % ID/g	0.85 ± 0.08 % ID/g	1.31 ± 0.28 % ID/g	0.30 ± 0.05 % ID/g	0.62 ± 0.22 % ID/g	3.72 ± 0.89 % ID/g	12.29 ± 4.22	0.09 ± 0.02	0.88 ± 0.38
